The IC50 is the concentration that gives 50% inhibition. A higher IC50 goes with lower potency.

Experiment [1] has as its target O-acyltransferase (Oryctolagus cuniculus, UniProt G1SFD9). The experiment in a line: In vitro Acyl coenzyme A:cholesterol acyltransferase inhibition by incubation with [14C]oleolyl-CoA and intestinal microsomes isolated from cholesterol-fed rabbits. Further details: species or system Intestine.
The species entered for experiment [2] is Rattus norvegicus. The experiment can be described thus: Cholesterol lowering activity was assessed in rats expressed as percent change in total cholesterol (TC) in cholic acid-cholesterol-peanut oil fed rats. In kind it is functional.

Chain of O-acyltransferase (G1SFD9 1-524): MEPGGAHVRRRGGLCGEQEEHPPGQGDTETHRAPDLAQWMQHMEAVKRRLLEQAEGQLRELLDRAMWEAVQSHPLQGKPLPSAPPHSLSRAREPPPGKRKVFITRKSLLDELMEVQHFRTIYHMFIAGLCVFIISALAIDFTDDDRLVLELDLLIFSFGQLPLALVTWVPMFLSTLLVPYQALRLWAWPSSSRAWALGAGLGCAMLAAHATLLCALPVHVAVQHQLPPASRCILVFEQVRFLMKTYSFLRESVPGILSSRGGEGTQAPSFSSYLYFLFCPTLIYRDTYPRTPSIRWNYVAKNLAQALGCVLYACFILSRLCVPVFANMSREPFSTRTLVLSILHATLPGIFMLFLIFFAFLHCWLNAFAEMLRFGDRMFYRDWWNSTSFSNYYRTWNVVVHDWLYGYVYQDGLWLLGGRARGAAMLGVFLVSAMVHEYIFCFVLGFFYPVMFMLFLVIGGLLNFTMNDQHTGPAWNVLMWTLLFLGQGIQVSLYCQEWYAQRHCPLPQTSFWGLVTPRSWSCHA

Take `Cc1cccc(C)c1N1N=C(CC(c2ccccc2)c2ccccc2)CC1=O`: it took 50.8 µM to reach half-maximal inhibition in experiment [1] (IC50). Regarding `CCCCCCCC/C=C\CCCCCCCC1=NN(c2c(Cl)cccc2Cl)C(=O)C1`, the IC50 in experiment [1] was found to be 22.9 µM. Besides, the “Change in TC” value in experiment [2] is -18%. On to `CCCCCCCC/C=C\CCCCCCCC1=NN(c2ccc(C)cc2C)C(=O)C1`, for which half-maximal inhibition in experiment [1] (IC50) required 5 µM. Further, in experiment [2], the “Change in TC” value is on record as -26%. `CCCCCCCC/C=C\CCCCCCCC1=NN(c2ccc(F)cc2F)C(=O)C1` came in with an IC50 in experiment [1] of 5 µM. For the compound `CC(C)c1cccc(C(C)C)c1N1CNC(C(c2ccccc2)c2ccccc2)C1=O` (stereo unspecified), the IC50 in experiment [1] is 3.9 µM.

With `CCCCCCCC/C=C\CCCCCCCC1=NN(c2ccc([N+](=O)[O-])cc2[N+](=O)[O-])C(=O)C1`, half-maximal inhibition in experiment [1] (IC50) required 5 µM. Besides, the “Change in TC” value in experiment [2] is -26%. On to `CCCCCCCCCCC1=NN(c2c(C)cccc2C)C(=O)C1`, for which the 50% inhibitory concentration (IC50) in experiment [1] came to 5 µM. Take `CC(C)c1cccc(C(C)C)c1N1CN(C(c2ccccc2)c2ccccc2)CC1=O`: the IC50 in experiment [1] worked out at 1.3 µM.

As for `CC(C)c1cccc(C(C)C)c1N1CN(CC(c2ccccc2)c2ccccc2)CC1=O`, in experiment [1], 5 µM corresponded to half-maximal inhibition (IC50). The “Change in TC” value in experiment [2] is listed as -6%.

`CC(C)c1cccc(C(C)C)c1N1CNC(Cc2ccccc2)C1=O` (stereo unspecified) had an IC50 in experiment [1] of 5.5 µM. For the same compound, the “Change in TC” value in experiment [2] is -9%. Consider `CCCCCCCC/C=C\CCCCCCCC1=NN(c2ccc(Cl)cc2Cl)C(=O)C1`, for which the 50% inhibitory concentration (IC50) in experiment [1] amounted to 9.9 µM.

Values taken from ChEMBL document CHEMBL1127280, “Imidazolidinones and pyrazolones as novel ACAT inhibitors: Chemistry and biological activity” (Bioorg Med Chem Lett, 1994).
